Assay results as given in patent US20230066011A1, “PYRROLOPYRIMIDINE DERIVATIVE, AND PHARMACEUTICAL COMPOSITION FOR PREVENTING OR TREATING PROTEIN KINASE-RELATED DISEASE COMPRISING SAME AS ACTIVE INGREDIENT” (VORONOI CO., LTD., priority 2019, published 2023).

Experiments:
[1] = target: T1, TTK (Homo sapiens, UniProt P33981); test: TTK enzyme inhibition, ADP-Glo kinase assay; assay type: biochemical; design: purchased SignalChem T20-10G; conditions: ATP 5 μM
T1 sequence (P33981 1-857): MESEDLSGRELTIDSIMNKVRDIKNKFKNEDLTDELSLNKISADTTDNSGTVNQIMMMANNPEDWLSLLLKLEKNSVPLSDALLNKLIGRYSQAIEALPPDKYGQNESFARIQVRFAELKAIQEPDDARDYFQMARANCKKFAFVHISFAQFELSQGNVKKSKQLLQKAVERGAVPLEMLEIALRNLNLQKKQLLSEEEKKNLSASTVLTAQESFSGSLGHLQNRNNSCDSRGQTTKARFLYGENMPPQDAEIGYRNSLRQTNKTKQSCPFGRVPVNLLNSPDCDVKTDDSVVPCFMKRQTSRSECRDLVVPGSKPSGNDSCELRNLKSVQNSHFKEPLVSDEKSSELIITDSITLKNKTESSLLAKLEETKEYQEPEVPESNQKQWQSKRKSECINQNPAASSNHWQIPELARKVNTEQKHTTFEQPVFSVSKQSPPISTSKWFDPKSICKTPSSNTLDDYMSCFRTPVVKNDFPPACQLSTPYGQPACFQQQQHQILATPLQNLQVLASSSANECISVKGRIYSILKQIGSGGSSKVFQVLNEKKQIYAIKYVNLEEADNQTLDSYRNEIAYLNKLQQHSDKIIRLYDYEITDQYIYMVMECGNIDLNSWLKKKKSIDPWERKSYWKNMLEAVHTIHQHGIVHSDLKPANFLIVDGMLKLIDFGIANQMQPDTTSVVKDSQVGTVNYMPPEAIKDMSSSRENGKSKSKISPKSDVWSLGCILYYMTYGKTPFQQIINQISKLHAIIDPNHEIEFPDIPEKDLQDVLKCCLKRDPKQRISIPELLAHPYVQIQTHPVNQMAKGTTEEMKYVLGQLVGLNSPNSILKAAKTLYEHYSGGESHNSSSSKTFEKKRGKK
How it was run: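 Purified human TTK (7.5 ng) was reacted with 5 μM ATP and 0.2 μg MBP substrate for 4 h at 25 °C in 40 mM Tris-HCl pH 7.4, 20 mM MgCl2, 0.1 mg/mL BSA, 50 μM DTT. ADP formation was read by ADP-Glo luminescence, and IC50 was taken relative to solvent control.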

[2] = target: T2, human GST-CLK1 (Homo sapiens, UniProt P49759); test: GST-CLK1 enzyme inhibition, ADP-Glo kinase assay; assay type: biochemical; conditions: ATP 10 μM, GST-CLK1 129-end
T2 construct: purified human GST-CLK1 (129-end, SignalChem) enzyme; purchased SignalChem
T2 sequence (P49759 129-484 limits assumed): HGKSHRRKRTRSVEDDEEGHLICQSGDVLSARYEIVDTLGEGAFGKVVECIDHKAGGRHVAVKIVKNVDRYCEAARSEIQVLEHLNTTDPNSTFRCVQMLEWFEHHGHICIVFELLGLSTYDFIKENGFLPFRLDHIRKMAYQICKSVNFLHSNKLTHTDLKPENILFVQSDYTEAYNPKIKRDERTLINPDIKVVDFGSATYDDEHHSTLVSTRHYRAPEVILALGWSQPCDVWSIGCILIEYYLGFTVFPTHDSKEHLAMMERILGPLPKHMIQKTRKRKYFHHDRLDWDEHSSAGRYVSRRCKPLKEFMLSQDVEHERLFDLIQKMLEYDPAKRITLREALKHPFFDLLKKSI
How it was run: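 ADP-Glo luminescence read-out, relative to untreated solvent control, gave IC50 (nM) from triplicate data sets. Reactions ran an hour at 25° C with 3 ng GST-CLK1 (residues 129-end), 10 μM ATP and specific substrate in Tris-HCl pH 7.4 buffer with MgCl2, BSA and DTT.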

[3] = tested on: human DYRK1A and tau; test: Inhibition of tau phosphorylation, ClariCELL Kinase Cell-Based Assay, HEK 293 cells expressing human DYRK1A and tau; conditions: for inhibition at 1 µM: HEK293, read-out: % inhibition at 1 uM, tau phosphorylation, compound 1 uM; for inhibition at 0.25 µM / inhibition at 0.5 µM: HEK293, tau phosphorylation; for inhibition at 0.25 µM: compound 0.25 uM; for inhibition at 0.5 µM: compound 0.5 uM
How it was run: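 Cell-based service assay: HEK 293 cells transiently expressing human DYRK1A and tau were treated with compound and lysed. Released tau was plate-captured and its phosphorylation quantified by ELISA with a phospho-tau-specific antibody.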

Structure (SMILES) | IC50 [1] [nM] | IC50 [2] [nM] | inhibition at 1 µM [3] [%] | inhibition at 0.25 µM [3] [%] | inhibition at 0.5 µM [3] [%]
N#Cc1c[nH]c2nc(Nc3ccc(C(=O)N4CCOCC4)c4c3OCCO4)nc(NCC3CCCC3)c12 [Example 133, 4-((cyclopentylmethyl)amino)-2-((8-(morpholine-4-carbonyl)-2,3-dihydrobenzo[b][1,4]dioxin-5-yl)amino)-7H-pyrrolo[2,3-d]pyrimidine-5-carbonitrile] | < 100 | 301 to 1000 |  |  | 
COc1cc(S(=O)(=O)N2CCC(N3CCOCC3)CC2)ccc1Nc1nc(C2CC2)c2c(C(F)(F)F)c[nH]c2n1 [Example 226] | < 100 | 301 to 1000 |  |  | 
CNc1nc(Nc2cc(F)c(S(=O)(=O)N3CCC(N4CCOCC4)CC3)cc2OC)nc2[nH]cc(C(F)(F)F)c12 [Example 231, N^2-(5-fluoro-2-methoxy-4-((4-morpholinopiperidin-1-yl)sulfonyl)phenyl)-N^4-methyl-5-(trifluoromethyl)-7H-pyrrolo[2,3-d]pyrimidine-2,4-diamine] | 101 to 300 | < 100 |  |  | 
CCNc1nc(Nc2cc(F)c(S(=O)(=O)N3CCC(N4CCOCC4)CC3)cc2OC)nc2[nH]cc(C(F)(F)F)c12 [Example 232, N^4-ethyl-N^2-(5-fluoro-2-methoxy-4-((4-morpholinopiperidin-1-yl)sulfonyl)phenyl)-5-(trifluoromethyl)-7H-pyrrolo[2,3-d]pyrimidine-2,4-diamine] | 301 to 1000 | 101 to 300 |  |  | 
CNc1nc(Nc2ccc(C(=O)N3CCC(N4CCOCC4)CC3)c3c2OCCO3)nc2[nH]cc(C(F)(F)F)c12 [Example 238, (8-((4-(methylamino)-5-(trifluoromethyl)-7H-pyrrolo[2,3-d]pyrimidin-2-yl)amino)-2,3-dihydrobenzo[b][1,4]dioxin-5-yl)(4-morpholinopiperidin-1-yl)methanone] |  | < 100 |  |  | 
CCN1CCP(=O)(c2ccc(Nc3nc(C4CC4)c4c(C#N)c[nH]c4n3)c(OC)c2)CC1 [Example 261] | < 100 | < 100 |  |  | 
CCNc1nc(Nc2ccc(C(=O)N3CCC(N4CCOCC4)CC3)c3c2OCC3)nc2[nH]cc(C#N)c12 [Example 347, 4-(ethylamino)-2-((4-(4-morpholino-piperidine-1-carbonyl)-2,3-dihydro-benzofuran-7-yl)amino)-7H-pyrrolo[2,3-d]pyrimidine-5-carbonitrile] |  | < 100 | 51.5 | 24.7 | 42.6
C=CCNc1nc(Nc2ccc(S(=O)(=O)N3CCC(N4CCOCC4)CC3)cc2OC)nc2[nH]cc(C#N)c12 [Example 361, 4-(allylamino)-2-((2-methoxy-4-((4-morpholino-piperidin-1-yl)sulfonyl)phenyl)amino)-7H-pyrrolo[2,3-d]pyrimidine-5-carbonitrile] | < 100 | < 100 |  |  | 
CCNc1nc(Nc2ccc(C(=O)N3CCN(C4COC4)CC3)c3c2OCCO3)nc2[nH]cc(C(F)(F)F)c12 [Example 400, (8-((4-(ethylamino)-5-(trifluoromethyl)-7H-pyrrolo[2,3-d]pyrimidin-2-yl)amino)-2,3-dihydrobenzo[b] [1,4]dioxin-5-yl) (4-(oxetan-3-yl)piperazin-1-yl)methanone] |  | < 100 | 69.4 | 22.3 | 46.5
O=C(c1ccc(Nc2nc(NC3CC3)c3c(C(F)(F)F)c[nH]c3n2)c2c1OCCO2)N1CCN(C2COC2)CC1 [Example 405, (8-((4-(cyclo-propylamino)-5-(trifluoromethyl)-7H-pyrrolo[2,3-d]pyrimidin-2-yl)amino)-2,3-dihydrobenzo[b] [1,4]dioxin-5-yl) (4-(oxetan-3-yl)piperazin-1-yl)methanone] |  | < 100 | 70.7 | 17.5 | 44
CNc1nc(Nc2ccc(P3(=O)CCN(C4CC4)CC3)cc2OC)nc2[nH]cc(C(F)(F)F)c12 [Example 411, 1-cyclopropyl-4-(3-methoxy-4-((4-(methylamino)-5-(trifluoromethyl)-7H-pyrrolo[2,3-d]pyrimidin-2-yl)amino)phenyl)-1,4-azaphosphinane-4-oxide] |  | < 100 | 70.8 | 28.5 | 48.9
O=C(c1ccc(Nc2nc(NCC3CC3)c3c(C(F)(F)F)c[nH]c3n2)c2c1CCO2)N1CCC(N2CCOCC2)CC1 [Example 461, (7-((4-((cyclo-propylmeth-yl)amino)-5-(trifluoromethyl)-7H-pyrrolo[2,3-d]pyrimidin-2-yl)amino)-2,3-dihydrobenzo-furan-4-yl)(4-morpho-linopiperidin-1-yl)methanone] |  | < 100 | 72.2 | 18.2 | 46.9

Now from value to molecule, other results behind:

IC50 [1] [nM] | IC50 [2] [nM] | Structure (SMILES) | inhibition at 1 µM [3] [%] | inhibition at 0.25 µM [3] [%] | inhibition at 0.5 µM [3] [%]
< 100 | < 100 | CCCNc1nc(Nc2ccc(C(=O)N3CCC(N4CCOCC4)CC3)c3c2OCCO3)nc2[nH]cc(C#N)c12 [Example 138, 2-((8-(4-morpholinopiperidine-1-carbonyl)-2,3-dihydrobenzo[b][1,4]dioxin-5-yl)amino)-4-(propylamino)-7H-pyrrolo[2,3-d]pyrimidine-5-carbonitrile] |  |  | 
< 100 | < 100 | N#Cc1c[nH]c2nc(Nc3ccc(C(=O)N4CCC(N5CCOCC5)CC4)c4c3OCCO4)nc(C3CC3)c12 [Example 221, 4-cyclopropyl-2-((8-(4-morpholinopiperidine-1-carbonyl)-2,3-dihydrobenzo[b][1,4]dioxin-5-yl)amino)-7H-pyrrolo[2,3-d]pyrimidine-5-carbonitrile] |  |  | 
101 to 300 | 301 to 1000 | COc1cc(S(=O)(=O)N2CCOCC2)ccc1Nc1nc(C2CC2)c2c(C#N)c[nH]c2n1 [Example 223, 4-cyclopropyl-2-((2-methoxy-4-(morpholinosulfonyl)phenyl)amino)-7H-pyrrolo[2,3-d]pyrimidine-5-carbonitrile] |  |  | 
 | < 100 | CNc1nc(Nc2ccc(C(=O)N3CC[C@H](N4CCOCC4)C3)c3c2OCC3)nc2[nH]cc(C(F)(F)F)c12 [Example 236, (S)-(7-((4-(methylamino)-5-(trifluoromethyl)-7H-pyrrolo[2,3-d]pyrimidin-2-yl)amino)-2,3-dihydrobenzofuran-4-yl)(3-morpholinopyrrolidin-1-yl)methanone] | 67 | 34.1 | 59.5
 | < 100 | O=C(c1ccc(Nc2nc(NC3CCC3)c3c(C(F)(F)F)c[nH]c3n2)c2c1OCCO2)N1CCN(C2COC2)CC1 [Example 407, (8-((4-(cyclo-butylamino)-5-(trifluoromethyl)-7H-pyrrolo[2,3-d]pyrimidin-2-yl)amino)-2,3-dihydrobenzo[b] [1,4]dioxin-5-yl) (4-(oxetan-3-yl)piperazin-1-yl)methanone] | 58.6 | 20.7 | 39.4
 | < 100 | COCCNc1nc(Nc2ccc(P3(=O)CCN(C4CCOCC4)CC3)cc2OC)nc2[nH]cc(C(F)(F)F)c12 [Example 444, 4-(3-methoxy-4-((4-((2-methoxyethyl)amino)-5-(trifluoromethyl)-7H-pyrrolo[2,3-d]pyrimidin-2-yl)amino)phenyl)-1-(tetrahydro-2H-pyran-4-yl)-1,4-azaphosphinane 4-oxide] | 65.6 | 21.7 | 45.7
 | < 100 | CCNc1nc(Nc2ccc(C(=O)N3CC[C@H](N4CCOCC4)C3)c3c2OCC3)nc2[nH]cc(C(F)(F)F)c12 [Example 475, (S)-(7-((4-(ethylamino)-5-(trifluoromethyl)-7H-pyrrolo[2,3-d]pyrimidin-2-yl)amino)-2,3-dihydrobenzo-furan-4-yl)(3-morpholino-pyrrolidin-1-yl)methanone] | 86.8 | 42.6 | 65.3
